Measured values reported in ChEMBL document CHEMBL1140277, “Antibiotics GE23077, novel inhibitors of bacterial RNA polymerase. Part 3: Chemical derivatization” (Bioorg Med Chem Lett, 2005).
Converted amounts (≈) assume the structure as drawn. Numbered stars: 1 amine (or outer) side, 2 acyl side, 3 side chain; on linkers, the order of the positions; unused ones are H or OH. Square brackets hold non-standard residues; d marks the D form. Peptide text beside a SMILES is read from it. * marks the point of attachment. ξ: configuration not given here. ξGln(3,4-(OH)2) = NC(=O)C(O)C(O)C(N)C(=O)O; isoSer(2S) = O=C([C@@H](O)CN[*:1])[*:2]; ξAllylGly = C=CCC(N)C(=O)O; X1 = CC(NCc1ccccc1)C(=O)*; ξE = NC(CCC(=O)O)C(=O)O; Dap = NC[C@H](N)C(=O)O; X2 = C/C=C(/C)C(=O)*

Experiments:
[1] = Inhibitory concentration against RNA polymerase from Escherichia coli using cell freei transcription assay; format: functional
[2] = Minimum inhibitory concentration against Moraxella catarrhalis using broth microdilution method; format: functional

Row | Structure (SMILES) | IC50 [1] [mg/L] | MIC [2] [µg/mL]
1 | CC(NC(=O)/C=C/c1ccccc1)C(=O)NC[C@@H]1NC(=O)C(C(=O)O)NC(=O)[C@@H](O)CNC(=O)[C@H]([C@@H](C)O)NC(=O)C(C(O)C(O)C(N)=O)NC(=O)[C@H](C(C)C)NC(=O)[C@H](CO)NC1=O (some centres undefined) | 0.08 (≈ 0.0867 µM) | 128 (≈ 139 µM)
2 | C/C=C(/C)C(=O)NC[C@@H]1NC(=O)C(C(=O)OC)NC(=O)[C@@H](O)CNC(=O)[C@H]([C@@H](C)O)NC(=O)C(C(O)C(O)CNC(=O)C(CCCC)CCCCCC)NC(=O)[C@H](C(C)C)NC(=O)[C@H](CO)NC1=O (some centres undefined) | > 3.2 | > 512
3 | CCCCCCCCC(=O)NC(C)C(=O)NC[C@@H]1NC(=O)C(C(=O)O)NC(=O)[C@@H](O)CNC(=O)[C@H]([C@@H](C)O)NC(=O)C(C(O)C(O)C(N)=O)NC(=O)[C@H](C(C)C)NC(=O)[C@H](CO)NC1=O (some centres undefined) | 0.09 (≈ 0.0965 µM) | 256 (≈ 274 µM)
4 | C/C=C(/C)C(=O)NC[C@@H]1NC(=O)C(C(=O)OCC)NC(=O)[C@@H](O)CNC(=O)[C@H]([C@@H](C)O)NC(=O)C(C(O)C(O)C(N)=O)NC(=O)[C@H](C(C)C)NC(=O)[C@H](CO)NC1=O (some centres undefined) | 0.1 (≈ 0.12 µM) | 64 (≈ 76.9 µM)
5 | C=CCC1NC(=O)[C@@H](O)CNC(=O)[C@H]([C@@H](C)O)NC(=O)C(C(O)C(O)C(N)=O)NC(=O)[C@H](C(C)C)NC(=O)[C@H](CO)NC(=O)[C@H](CNC(=O)/C(C)=C\C)NC1=O (stereo partly drawn) (cyclo([Dap](X2)SV[ξGln(3,4-(OH)2)]T[isoSer(2S)][ξAllylGly])) | 2.24 (≈ 2.8 µM) | 32 (≈ 40 µM)
6 | C/C=C(/C)C(=O)NC[C@@H]1NC(=O)CNC(=O)[C@@H](O)CNC(=O)[C@H]([C@@H](C)O)NC(=O)C(C(O)C(O)C(N)=O)NC(=O)[C@H](C(C)C)NC(=O)[C@H](CO)NC1=O (stereo partly drawn) (cyclo([Dap](X2)SV[ξGln(3,4-(OH)2)]T[isoSer(2S)]G)) | 0.65 (≈ 0.856 µM) | 16 (≈ 21.1 µM)
7 | C/C=C(/C)C(=O)NC[C@@H]1NC(=O)C(C(=O)OC)NC(=O)[C@@H](O)CNC(=O)[C@H]([C@@H](C)O)NC(=O)C(C(O)C(O)CNC(=O)Cc2ccc(-c3ccccc3)cc2)NC(=O)[C@H](C(C)C)NC(=O)[C@H](CO)NC1=O (some centres undefined) | > 3.2 | > 512
8 | C=CCOC(=O)C1NC(=O)[C@@H](O)CNC(=O)[C@H]([C@@H](C)O)NC(=O)C(C(O)C(O)C(N)=O)NC(=O)[C@H](C(C)C)NC(=O)[C@H](CO)NC(=O)[C@H](CNC(=O)/C(C)=C\C)NC1=O (some centres undefined) | 0.4 (≈ 0.474 µM) | –
9 | C/C=C(/C)C(=O)NC[C@@H]1NC(=O)C(C(=O)OC)NC(=O)[C@@H](O)CNC(=O)[C@H]([C@@H](C)O)NC(=O)C(C(O)C(O)C(N)=O)NC(=O)[C@H](C(C)C)NC(=O)[C@H](CO)NC1=O (some centres undefined) | 0.15 (≈ 0.183 µM) | 8 (≈ 9.78 µM)
10 | CCCCCCC(CCCC)C(=O)NC(C)C(=O)NC[C@@H]1NC(=O)C(C(=O)O)NC(=O)[C@@H](O)CNC(=O)[C@H]([C@@H](C)O)NC(=O)C(C(O)C(O)C(N)=O)NC(=O)[C@H](C(C)C)NC(=O)[C@H](CO)NC1=O (some centres undefined) | 0.13 (≈ 0.133 µM) | 512 (≈ 525 µM)
11 | CC(NCc1ccccc1)C(=O)NC[C@@H]1NC(=O)C(C(=O)O)NC(=O)[C@@H](O)CNC(=O)[C@H]([C@@H](C)O)NC(=O)C(C(O)C(O)C(N)=O)NC(=O)[C@H](C(C)C)NC(=O)[C@H](CO)NC1=O (some centres undefined) | 0.07 (≈ 0.0793 µM) | 32 (≈ 36.2 µM)
12 | CC(N)C(=O)NC[C@@H]1NC(=O)C(C(=O)O)NC(=O)[C@@H](O)CNC(=O)[C@H]([C@@H](C)O)NC(=O)C(C(O)C(O)C(N)=O)NC(=O)[C@H](C(C)C)NC(=O)[C@H](CO)NC1=O (some centres undefined) | 0.28 (≈ 0.353 µM) | 64 (≈ 80.7 µM)
13 | CC(O)C(=O)NC[C@@H]1NC(=O)C(C(=O)O)NC(=O)[C@@H](O)CNC(=O)[C@H]([C@@H](C)O)NC(=O)C(C(O)C(O)C(N)=O)NC(=O)[C@H](C(C)C)NC(=O)[C@H](CO)NC1=O (some centres undefined) | 0.11 (≈ 0.139 µM) | 64 (≈ 80.6 µM)
14 | CC(NCc1ccccc1)C(=O)NC[C@@H]1NC(=O)CNC(=O)[C@@H](O)CNC(=O)[C@H]([C@@H](C)O)NC(=O)C(C(O)C(O)C(N)=O)NC(=O)[C@H](C(C)C)NC(=O)[C@H](CO)NC1=O (stereo partly drawn) (cyclo([Dap](X1)SV[ξGln(3,4-(OH)2)]T[isoSer(2S)]G)) | 1.05 (≈ 1.25 µM) | 128 (≈ 153 µM)
15 | CCCCCCCCCCCCCCCCCC(=O)NC(C)C(=O)NC[C@@H]1NC(=O)[C@@H](C(=O)O)NC(=O)[C@@H](O)CNC(=O)[C@H]([C@@H](C)O)NC(=O)C(C(O)C(O)C(N)=O)NC(=O)[C@H](C(C)C)NC(=O)[C@H](CO)NC1=O (some centres undefined) | 0.57 (≈ 0.538 µM) | > 512
16 | C/C=C(/C)C(=O)NC[C@@H]1NC(=O)C(C(=O)N[C@@H](C)C(=O)N[C@@H](C)C(=O)OC)NC(=O)[C@@H](O)CNC(=O)[C@H]([C@@H](C)O)NC(=O)C(C(O)C(O)C(N)=O)NC(=O)[C@H](C(C)C)NC(=O)[C@H](CO)NC1=O (some centres undefined) | > 3.2 | 64 (≈ 66.7 µM)

Row | Structure (SMILES) | IC50 [1] [mg/L] | MIC [2] [µg/mL]
17 | C/C=C(/C)C(=O)NC[C@@H]1NC(=O)C(C(=O)OC)NC(=O)[C@@H](O)CNC(=O)[C@H]([C@@H](C)O)NC(=O)C(C(O)C(O)CN)NC(=O)[C@H](C(C)C)NC(=O)[C@H](CO)NC1=O (some centres undefined) | 3.14 (≈ 3.91 µM) | 32 (≈ 39.8 µM)
18 | CC(NCC(F)(F)F)C(=O)NC[C@@H]1NC(=O)C(C(=O)O)NC(=O)[C@@H](O)CNC(=O)[C@H]([C@@H](C)O)NC(=O)C(C(O)C(O)C(N)=O)NC(=O)[C@H](C(C)C)NC(=O)[C@H](CO)NC1=O (some centres undefined) | 0.17 (≈ 0.194 µM) | > 512
19 | CC(=O)C(=O)NC[C@@H]1NC(=O)C(C(=O)O)NC(=O)[C@@H](O)CNC(=O)[C@H]([C@@H](C)O)NC(=O)C(C(O)C(O)C(N)=O)NC(=O)[C@H](C(C)C)NC(=O)[C@H](CO)NC1=O (some centres undefined) | 0.07 (≈ 0.0884 µM) | 8 (≈ 10.1 µM)
20 | CC(NC(=O)Cc1ccc(-c2ccccc2)cc1)C(=O)NC[C@@H]1NC(=O)C(C(=O)O)NC(=O)[C@@H](O)CNC(=O)[C@H]([C@@H](C)O)NC(=O)C(C(O)C(O)C(N)=O)NC(=O)[C@H](C(C)C)NC(=O)[C@H](CO)NC1=O (some centres undefined) | 0.22 (≈ 0.223 µM) | > 512
21 | C/C=C(/C)C(=O)NC[C@@H]1NC(=O)C(C(=O)NCc2ccccc2)NC(=O)[C@@H](O)CNC(=O)[C@H]([C@@H](C)O)NC(=O)C(C(O)C(O)C(N)=O)NC(=O)[C@H](C(C)C)NC(=O)[C@H](CO)NC1=O (some centres undefined) | 0.3 (≈ 0.336 µM) | 128 (≈ 143 µM)
22 | CC(NCc1cc(F)c(F)c(F)c1)C(=O)NC[C@@H]1NC(=O)C(C(=O)O)NC(=O)[C@@H](O)CNC(=O)[C@H]([C@@H](C)O)NC(=O)C(C(O)C(O)C(N)=O)NC(=O)[C@H](C(C)C)NC(=O)[C@H](CO)NC1=O (some centres undefined) | 0.06 (≈ 0.064 µM) | 64 (≈ 68.3 µM)
23 | CCCCCCCCc1ccc(C(=O)NC(C)C(=O)NC[C@@H]2NC(=O)C(C(=O)O)NC(=O)[C@@H](O)CNC(=O)[C@H]([C@@H](C)O)NC(=O)C(C(O)C(O)C(N)=O)NC(=O)[C@H](C(C)C)NC(=O)[C@H](CO)NC2=O)cc1 (some centres undefined) | 0.07 (≈ 0.0694 µM) | > 512
24 | C/C=C(/C)C(=O)NC[C@@H]1NC(=O)C(CCC(=O)O)NC(=O)[C@@H](O)CNC(=O)[C@H]([C@@H](C)O)NC(=O)C(C(O)C(O)C(N)=O)NC(=O)[C@H](C(C)C)NC(=O)[C@H](CO)NC1=O (stereo partly drawn) (cyclo([Dap](X2)SV[ξGln(3,4-(OH)2)]T[isoSer(2S)][ξE])) | 0.2 (≈ 0.24 µM) | 8 (≈ 9.62 µM)
25 | C/C=C(/C)C(=O)NC[C@@H]1NC(=O)C(C(=O)OC)NC(=O)[C@@H](O)CNC(=O)[C@H]([C@@H](C)O)NC(=O)C(C(O)C(O)CNC(=O)/C=C/c2ccccc2)NC(=O)[C@H](C(C)C)NC(=O)[C@H](CO)NC1=O (some centres undefined) | > 3.2 | > 512
26 | C/C=C(/C)C(=O)NC[C@@H]1NC(=O)[C@@H](C(=O)O)NC(=O)[C@@H](O)CNC(=O)[C@H]([C@@H](C)O)NC(=O)C(C(O)C(O)C(N)=O)NC(=O)[C@H](C(C)C)NC(=O)[C@H](CO)NC1=O (some centres undefined) | 0.03 (≈ 0.0373 µM) | 8 (≈ 9.95 µM)
27 | C/C=C(/C)C(=O)NC[C@@H]1NC(=O)C(C(=O)NC(Cc2ccc(O)cc2)C(=O)O)NC(=O)[C@@H](O)CNC(=O)[C@H]([C@@H](C)O)NC(=O)C(C(O)C(O)C(N)=O)NC(=O)[C@H](C(C)C)NC(=O)[C@H](CO)NC1=O (some centres undefined) | – | 512 (≈ 529 µM)
28 | CC(NCC1CCCCC1)C(=O)NC[C@@H]1NC(=O)C(C(=O)O)NC(=O)[C@@H](O)CNC(=O)[C@H]([C@@H](C)O)NC(=O)C(C(O)C(O)C(N)=O)NC(=O)[C@H](C(C)C)NC(=O)[C@H](CO)NC1=O (some centres undefined) | 0.42 (≈ 0.472 µM) | 16 (≈ 18 µM)
29 | C/C=C(/C)C(=O)NC[C@@H]1NC(=O)C(C(=O)N(C)OC)NC(=O)[C@@H](O)CNC(=O)[C@H]([C@@H](C)O)NC(=O)C(C(O)C(O)C(N)=O)NC(=O)[C@H](C(C)C)NC(=O)[C@H](CO)NC1=O (some centres undefined) | 0.4 (≈ 0.472 µM) | –
30 | CC(NCc1cc(C(F)(F)F)cc(C(F)(F)F)c1)C(=O)NC[C@@H]1NC(=O)C(C(=O)O)NC(=O)[C@@H](O)CNC(=O)[C@H]([C@@H](C)O)NC(=O)C(C(O)C(O)C(N)=O)NC(=O)[C@H](C(C)C)NC(=O)[C@H](CO)NC1=O (some centres undefined) | 0.24 (≈ 0.236 µM) | 512 (≈ 503 µM)
31 | CC(NCc1ccc(C(F)(F)F)cc1)C(=O)NC[C@@H]1NC(=O)C(C(=O)O)NC(=O)[C@@H](O)CNC(=O)[C@H]([C@@H](C)O)NC(=O)C(C(O)C(O)C(N)=O)NC(=O)[C@H](C(C)C)NC(=O)[C@H](CO)NC1=O (some centres undefined) | 0.05 (≈ 0.0526 µM) | 256 (≈ 269 µM)
